Results taken from patent US8058008B2, “Method for extracting quantitative information relating to an influence on a cellular response” (Fisher Bioimage APS, priority 1997, dated 2011).

How the values were obtained:
EGFP-Erk1 fusion = experiment: EGFP-Erk1 nuclear translocation in HEK293 cells; assay type: cell-based, human
From the text: b) The human Erk1 gene (GenBank Accession number: X60188) was amplified using PCR according to standard protocols with primers Erk1-top (SEQ ID NO:9) and Erk1-bottom/+stop (SEQ ID NO:10). The PCR product was digested with restriction enzymes EcoR1 and BamH1, and ligated into pEGFP-C1 (Clontech, Palo Alto; GenBank Accession number U55763) digested with EcoR1 and BamH1. This produces an EGFP-Erk1 fusion (SEQ ID NO:38 &39) under the control of a CMV promoter.
The plasmid containing the EGFP-Erk1 fusion was transfected into HEK293 cells employing the FUGENE transfection reagent (Boehringer Mannheim). Prior to experiments the cells were grown to 80%-90% confluency 8 well chambers in DMEM with 10% FCS. […] Just before starting the experiment, the HAM F-12 was replaced with Hepes buffer following a wash with Hepes buffer. This removes the PD98059 inhibitor; if blocking of MEK1 is still wanted (e.g. in control experiments), the inhibitor is included in the Hepes buffer.
The experimental setup of the microscope was as described in example 1.
60 images were collected with 10 seconds between each, and with the test compound added after image number 10.
Redistribution of GFP fluorescence is expressed in this example as the change in the ratio value between areas in nuclear versus cytoplasmic compartments of the cell. Each time profile is the average of nuclear to cytoplasmic ratios from six cells in each treatment.

[1] = tested on: PKAc-F64L-S65T-GFP fusion; experiment: PKAc-F64L-S65T-GFP redistribution in stably transfected CHO cells (fluorescence microscopy, image analysis); assay type: cell-based, murine
Protocol: The catalytic subunit of the murine cAMP dependent protein kinase (PKAc) was fused C-terminally to a F64L-S65T derivative of GFP. The resulting fusion (PKAc-F64L-S65T-GFP) was used for monitoring in vivo the translocation and thereby the activation of PKA.
Untransfected CHO cells were used as the control. […] Expression of GR was maintained with 500 mg G418/ml (Neo marker) and PKAc-F64L-S65T-GFP was maintained with 500 mg Zeocin/ml (Sh ble marker). CHO cells were also simultaneously co-transfected with vectors containing the PKAc-F64L-S65T-GFP fusion and the human a2a adrenoceptor (hARa2a).
For fluorescence microscopy, cells were allowed to adhere to Lab-Tek chambered cover-glasses (Nalge Nunc Int., Naperville, Ill., USA) for at least 24 hours and cultured to about 80% confluence. Prior to experiments, the cells were cultured over night without selection pressure in HAM F-12 medium with glutamax (Life Technologies), 100 mg penicillin-streptomycin mixture ml^−1 and 0.3% FBS. This medium has low autofluorescence enabling fluorescence microscopy of cells straight from the incubator.
The cells were illuminated with a 100 W HBO arc lamp.
Method 1: Stepwise Procedure for Quantitation of Translocation of PKA:
3. The image histogram, i.e., the frequency of occurrence of each intensity value in the image, was calculated.
4. A smoothed, second derivative of the histogram was calculated and the second zero is determined. […]
5. The value determined in step 4 was subtracted from the image. […]
6. The variance (square of the standard deviation) of the remaining pixel values was determined. […]
Method 2: Alternative Method for Quantitation of PKA Redistribution:
1. […] The area of each image occupied by the aggregates is calculated by counting pixels in the segmented areas. […] A value of zero (0) indicates no redistribution of fluorescence from the starting condition. […]
As described above, the time it took for a response to come to completion was dependent on the forskolin dose (FIG. 5) In addition the degree of responses was also dose dependent. […] The amount of cAMP produced was measured in an SPA assay. […]

cAMP = experiment: Scintillation proximity assay (SPA) of cAMP produced in CHO cells; assay type: cell-based, Chinese hamster; settings: 8 concentrations 0.01-50 mM (n=4), 100 mM IBMX, 10 min
Protocol: 7. Scintillation proximity assay (SPA) for independent quantitation of cAMP:
Cells were cultured in HAM F-12 medium as described above, but in 96-well plates. The medium was exchanged with Ca^2+-HEPES buffer including 100 mM IBMX and the cells were stimulated with different concentrations of forskolin for 10 min. Reactions were stopped with addition of NaOH to 0.14 M and the amount of cAMP produced was measured with the cAMP-SPA kit, RPA538 (Amersham) as described by the manufacturer.
As described above, the time it took for a response to come to completion was dependent on the forskolin dose (FIG. 5) In addition the degree of responses was also dose dependent. To test the PKA-F64L-S65T-GFP fusion protein translocation in a semi high through-put system, CHO cells stably transfected with the PKA-F64L-S65T-GFP fusion was stimulated with buffer and 5 increasing doses of forskolin (n=8). […] In parallel, cells were stimulated with buffer and 8 increasing concentrations of forskolin (n=4) in the range 0.01-50 mM. The amount of cAMP produced was measured in an SPA assay. A steep increase was observed between 1 and 5 mM forskolin coincident with the steepest part of the curve for fusion protein translocation (also FIG. 6)

[2] = molecular target: T1, PKA-F64L-S65T-GFP probe / human a2a adrenoceptor (hARa2a) (Homo sapiens, UniProt P08913); experiment: PKAc-F64L-S65T-GFP redistribution in transiently transfected CHO cells expressing hARa2a; assay type: cell-based, murine; settings: 10 mM norepinephrine after 10 mM forskolin for 7.5 minutes, forskolin still present
T1 construct: expressed in transfected cells; host or cells: CHO, transient co-transfection
T1 sequence (P08913 1-465): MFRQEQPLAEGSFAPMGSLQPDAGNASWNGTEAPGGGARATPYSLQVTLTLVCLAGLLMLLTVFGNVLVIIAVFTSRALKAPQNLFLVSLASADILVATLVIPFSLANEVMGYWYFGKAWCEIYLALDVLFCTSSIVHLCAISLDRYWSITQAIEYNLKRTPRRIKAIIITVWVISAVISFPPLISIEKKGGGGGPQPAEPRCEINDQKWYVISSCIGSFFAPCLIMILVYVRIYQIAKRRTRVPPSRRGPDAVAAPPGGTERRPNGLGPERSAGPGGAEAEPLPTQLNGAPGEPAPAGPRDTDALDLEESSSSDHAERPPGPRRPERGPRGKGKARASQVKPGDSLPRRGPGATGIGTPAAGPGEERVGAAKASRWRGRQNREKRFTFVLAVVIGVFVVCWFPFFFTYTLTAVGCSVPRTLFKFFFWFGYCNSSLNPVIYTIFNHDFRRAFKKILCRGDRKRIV
Protocol: Transiently transfected CHO cells expressing hARa2a and the PKA-F64L-S65T-GFP probe were treated with 10 mM forskolin for 7.5 minutes, then, in the continued presence of forskolin, exposed to 10 mM norepinephrine to stimulate the exogenous adrenoreceptors, which couple to a Gi protein, which inhibit adenylate cyclase.

[3] = tested on: actin-binding-domain-EGFP fusion; experiment: Actin-binding-domain-EGFP redistribution in CHO cells expressing the human insulin receptor; assay type: cell-based; settings: insulin stimulation
From the text: The actin binding domain of the human alpha-actinin gene (GenBank Accession number: X15804) was amplified using PCR according to standard protocols with primers ABD-top (SEQ ID NO:90) and ABD-bottom/−stop (SEQ ID NO:91). The PCR product was digested with restriction enzymes Hind3 and BamH1, and ligated into pEGFP-N 1 (Clontech, Palo Alto; GenBank Accession number U55762) digested with Hind3 and BamH1. This produced an actin-binding-domain-EGFP fusion (SEQ ID NO:128 &129) under the control of a CMV promoter.
The resulting plasmid was transfected into CHO cells expressing the human insulin receptor.

Q: How did the “redistribution of EGFP-Erk1” value (EGFP-Erk1 fusion; EGF 1-100 nM, within minutes) turn out when “EGF: growth factor added to activate the MAPK pathway and Erk1 nuclear translocation (NSDSECPLSHDGYCLHDGVCMYIEALDKYACNCVVGYIGERCQYRDLKWWELR; UniProt P01133 971-1023, looked up)” was run?
A: redistribution of EGFP-Erk1 from the cytoplasm into the nucleus

Q: What about the “relationship between concentration and nuclear translocation of EGFP-Erk1” value (EGFP-Erk1 fusion; change in nuclear to cytoplasmic ratio, six cells per treatment) of the same compound?
A: dose-dependent relationship

Q: Which “effect on nuclear EGFP-Erk1” value (EGFP-Erk1 fusion; 100 micromolar PD98059, 30-60 minutes in plain HAM F-12 without FCS) does the source give for `COc1cccc(-c2cc(=O)c3ccccc3o2)c1N` [PD98059] here?
A: effectively empties the nucleus of EGFP-Erk1

Q: Which “temporal profile of fusion protein redistribution compared with forskolin” value ([1]; 1 mM dbcAMP, 100 mM IBMX, no adenylate cyclase stimulation) does the source give for `CC(C)Cn1c(=O)n(C)c(=O)c2[nH]cnc21` [IBMX] here?
A: slow response

Q: And the “return of fusion protein to prestimulatory localization after removal of forskolin” value ([1]; 10 mM forskolin and 100 mM IBMX, then washed 5-8 times with buffer containing 100 mM IBMX)?
A: did not return to its prestimulatory localization

Q: With `C=C[C@@]1(C)CC(=O)[C@]2(O)[C@@]3(C)[C@@H](O)CCC(C)(C)[C@@H]3[C@H](O)[C@H](OC(C)=O)[C@@]2(C)O1` [forskolin, Forskolin] as the compound, how does the “forskolin concentration range of steep increase in amount of cAMP produced” value (cAMP) read?
A: 1 to 5 mM

Q: `NC[C@H](O)c1ccc(O)c(O)c1` [norepinephrine] was tested. Which “localisation of fluorescence, indicative of a decrease in [cAMP]i” value [2] did it give?
A: reappearance of fluorescence in the cytoplasmic aggregates

Q: `CCCC(=O)Nc1ncnc2c1ncn2[C@@H]1O[C@@H]2COP(=O)(O)O[C@H]2[C@H]1OC(=O)CCC` [dbcAMP] was tested. Which “translocation of the fusion protein” value ([1]; 1, 10 and 50 mM forskolin, dbcAMP at 1 mM) did it give?
A: dramatic translocation of the fusion protein from a punctate distribution to an even distribution throughout the cytoplasm

Q: With insulin as the compound, how does the “redistribution of actin binding domain-EGFP probe” value [3] read?
A: redistributed into morphologically distinct membrane-associated structures
